# Measurements reported in US20250236608A1, “EGFR INHIBITORS” (Blueprint Medicines Corporation, priority 2022, published 2025).
# pIC50: −log10 of the molar value. Where a name gives a salt, the structure may show the parent alone.
# Assays:
# [1] = target: EGFR L858R (Homo sapiens (Human), UniProt P00533, L858R); assay: Biochemical EGFR inhibition assay, EGFR L858R; conditions: Caliper mobility shift; 1.0 mM ATP or ATP Km; read-out: Enz EGFR_L858R IC50
# [2] = target: pEGFR (Tyr1068) in PC-9 cells (Ex19Del) (Homo sapiens (Human), UniProt P00533, DEL746-750); assay: PC-9 pEGFR AlphaLISA assay; assay type: cell-based; conditions: 4 hours incubation, p-EGFR (Tyr1068) AlphaLISA, read-out: Ext pEGFR_PC-9 Ex19Del IC50
# In short: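 Phospho-EGFR (Tyr1068) was quantified by AlphaLISA SureFire Ultra in lysates of PC-9 cells exposed for 4 h to compound (4-fold, 10-point dilutions).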
# [3] = target: EGFR (d746-750) (Homo sapiens (Human), UniProt P00533, DEL746-750); assay: Biochemical EGFR inhibition assay, EGFR (d746-750); conditions: Caliper mobility shift; 1.0 mM ATP or ATP Km; read-out: Enz EGFR_Exon19-del746-750 IC50
# EGFR (d746-750), sequence (P00533 other isoform, or with tags, fused parts or gaps del 1-694/del 746-750 limits assumed): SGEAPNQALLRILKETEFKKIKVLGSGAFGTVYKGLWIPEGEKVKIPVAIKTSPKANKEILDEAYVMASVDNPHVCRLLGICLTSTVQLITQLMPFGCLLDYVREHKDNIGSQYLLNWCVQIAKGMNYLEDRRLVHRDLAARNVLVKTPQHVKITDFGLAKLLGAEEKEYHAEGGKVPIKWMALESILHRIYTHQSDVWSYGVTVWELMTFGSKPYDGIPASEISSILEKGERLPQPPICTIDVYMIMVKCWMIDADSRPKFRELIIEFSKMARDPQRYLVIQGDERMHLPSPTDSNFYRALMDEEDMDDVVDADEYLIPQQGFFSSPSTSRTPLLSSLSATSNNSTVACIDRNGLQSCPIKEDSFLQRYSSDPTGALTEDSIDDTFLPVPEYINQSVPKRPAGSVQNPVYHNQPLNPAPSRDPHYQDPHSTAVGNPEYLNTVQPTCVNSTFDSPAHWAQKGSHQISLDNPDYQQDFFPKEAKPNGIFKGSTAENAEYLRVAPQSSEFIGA
# EGFR L858R, sequence (P00533 25-1210 L858R): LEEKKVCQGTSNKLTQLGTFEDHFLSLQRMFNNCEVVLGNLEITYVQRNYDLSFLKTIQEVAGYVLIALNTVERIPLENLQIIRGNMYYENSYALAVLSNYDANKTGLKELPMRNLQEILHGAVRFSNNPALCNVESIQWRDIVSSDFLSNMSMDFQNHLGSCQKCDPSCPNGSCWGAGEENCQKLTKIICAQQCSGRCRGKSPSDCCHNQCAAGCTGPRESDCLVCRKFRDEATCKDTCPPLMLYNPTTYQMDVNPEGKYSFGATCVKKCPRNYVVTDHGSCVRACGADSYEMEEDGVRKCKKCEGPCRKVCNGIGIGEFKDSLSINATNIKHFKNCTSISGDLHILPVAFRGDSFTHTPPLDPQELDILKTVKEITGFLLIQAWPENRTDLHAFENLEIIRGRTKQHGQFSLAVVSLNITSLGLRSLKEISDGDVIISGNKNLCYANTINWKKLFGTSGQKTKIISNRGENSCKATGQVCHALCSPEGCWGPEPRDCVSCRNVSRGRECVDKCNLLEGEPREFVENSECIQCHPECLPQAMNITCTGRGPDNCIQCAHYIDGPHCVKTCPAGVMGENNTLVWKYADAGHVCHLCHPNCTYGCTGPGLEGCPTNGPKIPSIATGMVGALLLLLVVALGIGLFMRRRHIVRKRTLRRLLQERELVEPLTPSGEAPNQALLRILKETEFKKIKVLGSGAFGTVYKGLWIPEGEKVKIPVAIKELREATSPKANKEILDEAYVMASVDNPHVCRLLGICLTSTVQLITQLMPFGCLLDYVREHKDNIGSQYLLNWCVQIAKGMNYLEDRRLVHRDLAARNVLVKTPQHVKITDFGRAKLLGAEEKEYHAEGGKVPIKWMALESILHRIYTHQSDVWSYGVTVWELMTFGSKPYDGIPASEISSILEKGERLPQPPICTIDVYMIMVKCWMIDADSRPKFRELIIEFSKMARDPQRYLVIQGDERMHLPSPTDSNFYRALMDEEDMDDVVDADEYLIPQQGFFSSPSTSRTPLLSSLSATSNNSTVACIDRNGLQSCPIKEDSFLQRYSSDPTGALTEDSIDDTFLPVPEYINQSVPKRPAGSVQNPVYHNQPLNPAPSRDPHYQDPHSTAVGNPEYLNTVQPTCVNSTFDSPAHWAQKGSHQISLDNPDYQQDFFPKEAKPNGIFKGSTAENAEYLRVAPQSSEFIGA
# pEGFR (Tyr1068) in PC-9 cells (Ex19Del), sequence (P00533 other isoform, or with tags, fused parts or gaps del 746-750): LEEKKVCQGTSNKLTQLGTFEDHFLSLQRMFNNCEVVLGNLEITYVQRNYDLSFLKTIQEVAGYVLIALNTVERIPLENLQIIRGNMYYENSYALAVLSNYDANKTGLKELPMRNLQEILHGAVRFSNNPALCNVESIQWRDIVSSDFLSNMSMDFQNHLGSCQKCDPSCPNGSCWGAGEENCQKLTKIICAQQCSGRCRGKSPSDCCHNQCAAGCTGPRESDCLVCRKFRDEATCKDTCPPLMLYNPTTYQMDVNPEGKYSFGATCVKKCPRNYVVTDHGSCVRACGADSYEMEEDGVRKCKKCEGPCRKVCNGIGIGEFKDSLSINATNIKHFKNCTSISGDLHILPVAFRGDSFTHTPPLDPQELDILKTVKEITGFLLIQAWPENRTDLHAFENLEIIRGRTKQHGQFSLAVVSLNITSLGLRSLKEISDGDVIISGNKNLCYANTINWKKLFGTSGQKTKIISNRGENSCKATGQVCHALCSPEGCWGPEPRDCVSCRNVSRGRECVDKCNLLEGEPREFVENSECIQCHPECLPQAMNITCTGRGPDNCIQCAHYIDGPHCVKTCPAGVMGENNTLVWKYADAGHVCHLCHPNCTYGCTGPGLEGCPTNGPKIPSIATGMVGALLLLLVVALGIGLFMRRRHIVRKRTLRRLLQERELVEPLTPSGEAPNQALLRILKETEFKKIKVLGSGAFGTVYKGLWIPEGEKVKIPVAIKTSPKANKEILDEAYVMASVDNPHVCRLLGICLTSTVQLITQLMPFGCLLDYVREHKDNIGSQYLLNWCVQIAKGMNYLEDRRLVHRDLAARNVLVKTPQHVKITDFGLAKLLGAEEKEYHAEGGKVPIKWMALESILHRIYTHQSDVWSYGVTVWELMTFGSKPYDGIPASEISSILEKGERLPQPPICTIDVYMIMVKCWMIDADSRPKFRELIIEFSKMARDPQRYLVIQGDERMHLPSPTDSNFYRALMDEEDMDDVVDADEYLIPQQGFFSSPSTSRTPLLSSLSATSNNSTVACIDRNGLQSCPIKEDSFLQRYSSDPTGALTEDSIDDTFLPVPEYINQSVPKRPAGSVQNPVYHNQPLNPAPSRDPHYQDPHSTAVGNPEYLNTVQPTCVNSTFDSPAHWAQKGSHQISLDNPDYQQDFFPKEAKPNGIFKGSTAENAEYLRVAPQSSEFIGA
Structure (SMILES),pIC50 [1],pIC50 [2],pIC50 [3]
"Cn1cc(-c2ncnc3cc(OC4CC4)c(NC(=O)[C@]45COCC4C5)nc23)c(-c2ccccc2)n1 (stereo partly drawn) [Example 459, (1S)—N-[7-cyclopropoxy-4-(1-methyl-3-phenyl-1H-pyrazol-4-yl)pyrido[3,2-d]pyrimidin-6-yl]-3-oxabicyclo[3.1.0]hexane-1-carboxamide]",8.42,8.92,9.00
"Cn1cc(-c2ncnc3cc(O)c(NC(=O)C4(C(F)(F)F)CC4)nc23)c(-c2ccccc2)n1 [Example 464, N-[7-hydroxy-4-(1-methyl-3-phenyl-1H-pyrazol-4-yl)pyrido[3,2-d]pyrimidin-6-yl]-1-(trifluoromethyl)cyclopropane-1-carboxamide]",9.05,8.85,9.52
"COc1cc2ncnc(-c3cn(C)nc3-c3ccccc3)c2nc1NC(=O)[C@@]1(C)CCCO1 [Example 363, (R)-N-(7-methoxy-4-(1-methyl-3-phenyl-1H-pyrazol-4-yl)pyrido[3,2-d]pyrimidin-6-yl)-2-methyltetrahydrofuran-2-carboxamide]",8.27,8.46,8.77
"COc1cc2ncnc(-c3cn(C)nc3-c3ccccc3)c2cc1OC(=O)N1CCOC(C)(C)C1 [Example 80, 7-methoxy-4-(1-methyl-3-phenyl-1H-pyrazol-4-yl)quinazolin-6-yl 2,2-dimethylmorpholine-4-carboxylate]",8.22,8.02,8.51
"COc1cc2ncnc(-c3cn(C)nc3-c3ccccc3)c2cc1OC(=O)N1CCO[C@@H]2C[C@@H]21 (racemic) [Example 83, Cis-rac-7-methoxy-4-(1-methyl-3-phenyl-1H-pyrazol-4-yl)quinazolin-6-yl (1R,6S)-2-oxa-5-azabicyclo[4.1.0]heptane-5-carboxylate]",8.52,8.31,8.66
"COc1cc2ncnc(-c3cn(CC(F)F)nc3-c3ccccc3)c2cc1NC(=O)c1scnc1C [Example 273, N-(4-(1-(2,2-difluoroethyl)-3-phenyl-1H-pyrazol-4-yl)-7-methoxyquinazolin-6-yl)-4-methylthiazole-5-carboxamide]",8.82,9.22,9.00
"COc1cc2ncnc(-c3cn(C)nc3-c3ccccc3)c2cc1O[C@H]1CCOC[C@@H]1F [Example 17, 6-(((3S,4S)-3-fluorotetrahydro-2H-pyran-4-yl)oxy)-7-methoxy-4-(1-methyl-3-phenyl-1H-pyrazol-4-yl)quinazoline]",8.74,8.62,8.96
"COc1cc2ncnc(-c3cn(C)nc3-c3ccccc3)c2cc1NC(=O)c1c(Cl)cccc1Cl [Example 231, 2,6-dichloro-N-(7-methoxy-4-(1-methyl-3-phenyl-1H-pyrazol-4-yl)quinazolin-6-yl)benzamide]",8.82,8.62,9.00
"COc1cc2ncnc(-c3cn(CC(F)F)nc3-c3ccccc3)c2nc1NC(=O)C1(C(F)(F)F)CC1 [Example 370, N-(4-(1-(2,2-difluoroethyl)-3-phenyl-1H-pyrazol-4-yl)-7-methoxypyrido[3,2-d]pyrimidin-6-y1)-1-(trifluoromethyl)cyclopropane-1-carboxamide]",8.96,9.40,9.15
"COc1cc2ncnc(-c3cn(C)nc3-c3ccccc3)c2nc1NC(=O)c1ccc(F)cc1 [Example 312, 4-fluoro-N-(7-methoxy-4-(1-methyl-3-phenyl-1H-pyrazol-4-yl)pyrido[3,2-d]pyrimidin-6-yl)benzamide]",8.16,8.06,8.49
Cn1cc(-c2ccc3c(-c4cnn(C)c4-c4ccccc4)ncnc3c2)cn1 [Example 497],8.85,7.41,8.74

# Continued by rising pIC50 [1], values first:
pIC50 [1],pIC50 [2],pIC50 [3],Structure (SMILES)
8.03,7.84,8.44,"COc1cc2ncnc(-c3cn(C)nc3-c3ccccc3)c2nc1O[C@@H](C)c1nnnn1C [Example 45, (S)-7-methoxy-6-(1-(1-methyl-1H-tetrazol-5-yl)ethoxy)-4-(1-methyl-3-phenyl-1H-pyrazol-4-yl)pyrido[3,2-d]pyrimidine]"
8.03,7.87,8.47,"COc1cc2ncnc(-c3cn(C)nc3-c3ccccc3)c2cc1OC(=O)N1C[C@H](C)OC[C@@H]1C (racemic) [Example 92, cis-rac-7-methoxy-4-(1-methyl-3-phenyl-1H-pyrazol-4-yl)quinazolin-6-yl (2R,5S)-2,5-dimethylmorpholine-4-carboxylate or trans-rac-7-methoxy-4-(1-methyl-3-phenyl-1H-pyrazol-4-yl)quinazolin-6-yl (2S,5S)-2,5-dimethylmorpholine-4-carboxylate]"
8.10,8.34,9.00,"COc1cc2ncnc(-c3cn(C)nc3-c3ccccc3)c2nc1NC(=O)C1(OC)CC1 [Example 436, 1-methoxy-N-(7-methoxy-4-(1-methyl-3-phenyl-1H-pyrazol-4-yl)pyrido[3,2-d]pyrimidin-6-yl)cyclopropane-1-carboxamide]"
8.17,7.93,8.66,"COc1cc2ncnc(-c3cn(C)nc3-c3ccccc3)c2cc1N1CC[C@H](F)[C@@H](O)C1 (single isomer, unassigned) [Example 172, (3S,4S)-4-fluoro-1-(7-methoxy-4-(1-methyl-3-phenyl-1H-pyrazol-4-yl)quinazolin-6-yl) piperidin-3-ol or (3R,4R)-4-fluoro-1-(7-methoxy-4-(1-methyl-3-phenyl-1H-pyrazol-4-yl)quinazolin-6-yl) piperidin-3-ol]"
8.19,8.08,8.52,"COc1cc2ncnc(-c3cn(C)nc3-c3ccccc3)c2cc1NC(=O)C12CC(N(C)C)(C1)C2 [Example 341, 3-(dimethylamino)-N-(7-methoxy-4-(1-methyl-3-phenyl-1H-pyrazol-4-yl)quinazolin-6-yl)bicyclo[1.1.1]pentane-1-carboxamide trifluoroacetate]"
8.54,8.60,8.96,"COc1cc2ncnc(-c3cn(C)nc3-c3ccc(F)cc3)c2nc1NC(=O)[C@@]12C[C@@H]1CN(C)C2 (single isomer, unassigned) [Example 410, (1S,5S)—N-(4-(3-(4-fluorophenyl)-1-methyl-1H-pyrazol-4-yl)-7-methoxypyrido[3,2-d]pyrimidin-6-yl)-3-methyl-3-azabicyclo[3.1.0]hexane-1-carboxamide or (1R,5R)—N-(4-(3-(4-fluorophenyl)-1-methyl-1H-pyrazol-4-yl)-7-methoxypyrido[3,2-d]pyrimidin-6-yl)-3-methyl-3-azabicyclo[3.1.0]hexane-1-carboxamide]"
8.54,8.49,8.68,"COc1cc2ncnc(-c3cn(C)nc3-c3ccccc3)c2cc1NC(=O)C1C2COCC21 (stereo not drawn) [Example 223, N-(7-methoxy-4-(1-methyl-3-phenyl-1H-pyrazol-4-yl)quinazolin-6-yl)-3-oxabicyclo[3.1.0]hexane-6-carboxamide]"
8.64,8.57,8.72,"CCn1cc([C@@H](C)Oc2nc3c(-c4cn(C)nc4-c4ccccc4)ncnc3cc2OC)nn1 [Example 35, (R)-6-(1-(1-ethyl-1H-1,2,3-triazol-4-yl)ethoxy)-7-methoxy-4-(1-methyl-3-phenyl-1H-pyrazol-4-yl)pyrido[3,2-d]pyrimidine]"
8.68,8.85,8.85,"COc1cc2ncnc(-c3cn(CC(F)F)nc3-c3ccccc3)c2cc1NC(=O)c1cnn(C(C)C)c1 [Example 270, N-(4-(1-(2,2-difluoroethyl)-3-phenyl-1H-pyrazol-4-yl)-7-methoxyquinazolin-6-yl)-1-isopropyl-1H-pyrazole-4-carboxamide]"
8.85,8.96,9.00,"COc1cc2ncnc(-c3cn(C)nc3-c3ccccc3)c2nc1OC(C)c1cccnc1F (stereo not drawn) [Example 30, 6-(1-(2-fluoropyridin-3-yl)ethoxy)-7-methoxy-4-(1-methyl-3-phenyl-1H-pyrazol-4-yl)pyrido[3,2-d]pyrimidine]"
8.85,8.89,9.05,"COc1cc2ncnc(-c3cn(C)nc3-c3ccccc3)c2cc1NC(=O)c1cccc(C)n1 [Example 329, N-(7-methoxy-4-(1-methyl-3-phenyl-1H-pyrazol-4-yl)quinazolin-6-yl)-6-methylpicolinamide]"
8.89,9.05,9.15,"COc1cc2ncnc(-c3cn(C)nc3-c3ccccc3)c2nc1NC(=O)C1(C(F)F)CC1 [Example 369, 1-(difluoromethyl)-N-(7-methoxy-4-(1-methyl-3-phenyl-1H-pyrazol-4-yl)pyrido[3,2-d]pyrimidin-6-yl)cyclopropane-1-carboxamide]"
9.05,9.15,9.22,"C[C@H](O)c1cc2c(-c3cn(CC(F)F)nc3-c3ccccc3)ncnc2cc1-c1cnn(C)c1 (single isomer, unassigned) [Example 446, (S)-1-(4-(1-(2,2-difluoroethyl)-3-phenyl-1H-pyrazol-4-yl)-7-(1-methyl-1H-pyrazol-4-yl)quinazolin-6-yl)ethan-1-ol or (R)-1-(4-(1-(2,2-difluoroethyl)-3-phenyl-1H-pyrazol-4-yl)-7-(1-methyl-1H-pyrazol-4-yl)quinazolin-6-yl)ethan-1-ol]"
